This is an account of results in patent US20120121670A1, “POLYARGININE NANOCAPSULES” (priority 2009, published 2012).

The subject of this assay is NCI-H460 lung cancer cell line. Put plainly: Cell proliferation inhibition. Type of assay: cell-based. The conditions noted are these: Homo sapiens, docetaxel concentration, Graph Pad Prism 2.1, read-out: IC50 (concentration at which the proliferation of 50% of the population is inhibited). The protocol:
The % of cell viability at different concentrations of DCX is depicted for polyarginine NC, DCX in solution, polyarginine/DCX NC.
In order to evaluate the potential of the PArg nanocapsules encapsulating the docetaxel cytostatic molecule to inhibit the cell proliferation of the NCI-H460 lung cancer cell line the nanocapsules were prepared according to the method described in Example 3. The results shown in FIG. 9 show the great proliferation inhibition capacity of the nanocapsules encapsulating docetaxel in comparison with the free molecule. […] The IC50 values, concentration at which the proliferation of 50% of the population is inhibited, were calculated by means of the Graph Pad Prism 2.1 program (Graph Pad Software).

Turning to `CC(=O)O[C@@]12CO[C@@H]1C[C@H](O)[C@@]1(C)C(=O)[C@H](O)C3=C(C)[C@@H](OC(=O)[C@H](O)[C@@H](NC(=O)OC(C)(C)C)c4ccccc4)C[C@@](O)([C@@H](OC(=O)c4ccccc4)[C@H]21)C3(C)C` [docetaxel solution, docetaxel], the IC50 amounted to 13.3 nM.
